Test results taken from patent US9289490B2, “Combinations and uses thereof” (MORPHOSYS AG, priority 2010, dated 2016).
Values joined by “and” are separate entries in the source; they are usually repeats but may differ in a detail not shown here. Identical values can stand only once.

Assays:
[1] = tested on: AMO-1 cells; assay: Cell proliferation, XTT-based assay; parameters: species or system human
Description: (§6) Cells were collected and distributed in 96-well plates with 5000 cells per well.
(§7) After incubation, plates were analyzed for cell proliferation in a quantitative colorimietric XTT-based assay using the cell proliferation kit II (ROCHE, Cell Proliferation Kit II, Cat. No.: 11465015001). For subsequent measurement plates were subjected to Tecan Genios Reader and absorbance at 492 nm was detected.
(§8) Increasing amounts of Bortezomib (Velcade®, Lot: No.: #9AZSY00) were applied to AMO-1, LP-1, NCI-H929 and RPMI-8226 cells and incubated for 24 h, 48 h and 72 h. After incubation, period plates were analyzed for cell proliferation in a quantitative colorimietric XTT-based assay using the cell proliferation kit II (ROCHE, Cell Proliferation Kit II, Cat. No.: 11465015001). For subsequent measurement, plates were subjected to Tecan Genios Reader and absorbance at 492 nm was detected.

[2] = tested on: AMO-1 cells; assay: CD38 surface expression after lenalidomide (FACS, ABC); assay type: cell-based, human
Description: (§1) Cells were stained with a directly labelled QuantiBRITE™ CD38-PE antibody (Becton Dickinson GmbH, Clone HB7, CAT #342371), which is specific for CD38. The “Antibodies Bound Per Cell” (ABC's) were determined using the flow cytometry based QuantiBRITE™ system, which measures the geometric mean (GeoMean) per cell. Conversion of measured GeoMean into correlating ABC amount per cell was done with GraphPad PRISM™ software. The ABC values are assumed to correlate with the number of CD38 molecules per cell, since QuantiBRITE™ CD38-PE carries one PE molecule per antibody.
(§2) To determine whether lenalidomide induced upregulation of CD38 in the multiple myeloma and plasmacytoma cells of Table 1, the cell lines were incubated with 100 μM lenalidomide and, subsequently, CD38 surface expression was analyzed by FACS.
(§3) Around 2×10^5 cells of each of the cells lines of Table 1 were plated on 48-well dishes in standard RPMI medium. Lenalidomide, purchased from Selleck Chemicals (LLC S1029, CAS No. 191732-6; Batch: S10290), was applied to respective wells to a final concentration of 100 μM in a volume of 750 μl containing 20% FCS and 0.1% DMSO.
(§4) Cells were resuspended by gentle pipetting and 250 μl of cell suspension per incubation period were transferred into a well of a 96-well round bottom plate. Cells were washed by centrifugation for 1 min at 700×g and were resuspended in 150 μl of cold FACS buffer (1×PBS supplemented with 3% FCS). Cells were again pelleted down by centrifugation and were resuspended in 150 μl of FACS buffer containing 15 μg/ml of anti-CD38 antibody (MOR202, IgG1) or control antibody MOR03207 and incubated for 1 h on ice. Cells were then washed 3 times by centrifugation and were resuspended in FACS buffer supplemented with PE-labeled secondary antibody (PE-Fab2 fragment, goat anti-human IgG. Fc-fragment specific; Jackson Immuno Research; CAT: 109-116-098; Lot: 80938). Cells were incubated for 45 minutes on ice, then washed 3 times by centrifugation and resuspended in FACS buffer. The cell suspensions were then subjected to FACS analysis using a FACS array device.
(§5) Additionally, the affect of lenalidomide on the CD38 expression of AMO-1 cells is shown in FIG. 1, and the affect of lenalidomide on the CD38 expression of NCI-H929 cells is shown in FIG. 5.

[3] = tested on: RPMI-8226 cells; assay: as above; assay type: cell-based, human
Description: as §1, §2, §3, §4, §5

[4] = tested on: NCI-H929 cells; assay: as above; assay type: cell-based, human
Description: as §1, §2, §3, §4, §5

[5] = tested on: OPM-2 cells; assay: as above; assay type: cell-based, human
Description: as §1, §2, §3, §4, §5

[6] = tested on: LP-1 cells; assay: as above; assay type: cell-based, human
Description: as §1, §2, §3, §4, §5

[7] = tested on: AMO-1 cells; assay: ADCC with human PBMCs, flow cytometry (CalceinAM/PI); assay type: cell-based
Description: For Tables 3b-c, “Theoretical Combination” represents the addition of the values of MOR202 alone and the values of LEN alone. The normalized data of Table 3b is calculated as follows. Therefore, the specific killing values of Table 3b are calculated by subtracting the values of the controls. Then the specific killing values are compared to the MOR202 group, which is set as 1.
The constant m determines the shape of the dose-effect curve. We used Excel Fit software to carry out a linear regression calculation to estimate the parameters m and D50.
The CI-isobol method provides a quantitative assessment of synergism between drugs. A combination index (CI) is estimated from dose-effect data of single and combined drug treatments. […] Formally, the combination index (CI) of a combined drug treatment is defined as CI=D1/Dx1+D2/Dx2
The data is analysed in the following way: Antagonistic(AB)/C<(A/C)×(B/C) Additive(AB)/C=(A/C)×(B/C) Synergistic(AB)/C>(A/C)×(B/C) where A is the treatment with LEN alone; B is the treatment with MOR202 alone; C is response to the treatment vehicle; AB is combination of treatments A and B.

[8] = tested on: NCI-H929 cells; settings: 5 µM
Description: PBMC's were isolated by density gradient centrifugation of freshly isolated human blood. Isolated blood from different donors were layered on a defined volume of Biocoll (Biochrome AG; CAT No.:L6115; LOT No.:1050T) in a Falcon tube and centrifuged at 380 g. The PBMCs were isolated and supplemented with RPMI medium.
Cell suspensions were further incubated for 4 h at 37° C. To detect dead AMO-1 cells, cell suspensions were challenged with propidium iodide (PI) and subsequently analyzed in flow cytometry. Target cells were separated via gating of CalceinAM positive cell populations, and cells killed via ADCC were quantified.
Single and combination doses of 5 μM LEN and 15 μg/ml of MOR03207 and 0.2 or 0.07 μg/ml MOR202 were used.
Single and combination doses of 5 μM LEN and 15 μg/ml of MOR03207 and 0.2* or 0.07 μg/m MOR202 were used.

[9] = tested on: RAMOS cells; assay: RAMOS non-Hodgkin tumor SCID mouse survival model, MOR202 and lenalidomide; assay type: in vivo, SCID mice
Description: Sixty-eight female SCID mice were pre-treated with Cyclophosphamide (75 mg/kg, i.p., twice daily) for two days prior to RAMOS cell inoculation (Day −5 and −4). On the day of inoculation (Day −3), all mice were inoculated with 1×10^6 RAMOS cells each intravenously into the tail vein. Sixty-four of the mice were randomised by body weight into eight groups of eight.
The study continued for 98 days and the measured endpoint was survival.

[10] = tested on: Plasmacytoma, Malignant Plasma Cells; assay: CD38 surface expression after lenalidomide (FACS, ABC); assay type: cell-based, human
Description: Bone marrow samples (4-10 ml aspirate) from multiple myeloma patients and extramedullary tumor plasmacytoma samples were obtained after informed consent from the Klinikum rechts der Isar (“KrdI”) (Munich, Germany). Samples were subjected to centrifugation, and further plasma cell enrichment was achieved via magnetic-activated cell sorting.
as §1, §2, §3
Cells were resuspended by gentle pipetting and 250 μl of cell suspension per incubation period were transferred into a well of a 96-well round bottom plate. Cells were washed by centrifugation for 1 min at 700×g and were resuspended in 150 μl of cold FACS buffer (1×PBS supplemented with 3% FCS). Cells were again pelleted down by centrifugation and were resuspended in 150 μl of FACS buffer containing 15 μg/ml of anti-CD38 antibody (MOR202, IgG1) or control antibody MOR03207 and incubated for 1 h on ice. […]

[11] = tested on: NCI-H929 cells; assay: Cell proliferation, XTT-based assay; settings: NCI-H929 cells
Description: as §6, §7, §8

Nc1cccc2c1CN(C1CCC(=O)NC1=O)C2=O (centres unmarked) [LEN, lenalidomide]
Cytotoxicity of lenalidomide alone (in words) [1]: low cytotoxity against AMO-1 cells
Absolute number of ABC (CD38 expression) LEN (extrapolated) ([2]; 100 μM lenalidomide): 115,000 ABC
Absolute number of ABC (CD38 expression) INCREASE ([2]; 100 μM lenalidomide vs basal): 90,000 ABC
Fold increase (CD38 expression) ([2]; 100 μM lenalidomide vs basal): 4.5 fold
Absolute number of ABC (CD38 expression) LEN (extrapolated) ([3]; 100 μM lenalidomide): 871,000 ABC
Effect (on CD38 expression) ([3]; 100 μM lenalidomide): Weak
Absolute number of ABC (CD38 expression) INCREASE ([3]; 100 μM lenalidomide vs basal): 199,000 ABC
Fold increase (CD38 expression) ([3]; 100 μM lenalidomide vs basal): 1.3 fold
Absolute number of ABC (CD38 expression) LEN (extrapolated) ([4]; 100 μM lenalidomide): 390,000 ABC
Effect (on CD38 expression) ([4]; 100 μM lenalidomide): Weak
Absolute number of ABC (CD38 expression) INCREASE ([4]; 100 μM lenalidomide vs basal): 195,000 ABC
Fold increase (CD38 expression) ([4]; 100 μM lenalidomide vs basal): 2.0 fold
Absolute number of ABC (CD38 expression) LEN (extrapolated) ([5]; 100 μM lenalidomide): 98,800 ABC
Absolute number of ABC (CD38 expression) INCREASE ([5]; 100 μM lenalidomide vs basal): 60,800 ABC
Fold increase (CD38 expression) ([5]; 100 μM lenalidomide vs basal): 2.6 fold
Absolute number of ABC (CD38 expression) LEN (extrapolated) ([6]; 100 μM lenalidomide): 162,500 ABC
Effect (on CD38 expression) ([6]; 100 μM lenalidomide): No
Absolute number of ABC (CD38 expression) INCREASE ([6]; 100 μM lenalidomide vs basal): 37,500 ABC
Fold increase (CD38 expression) ([6]; 100 μM lenalidomide vs basal): 1.3 fold
Cell killing by lenalidomide alone (in words) ([7]; AMO-1 cells): no effect on AMO-1 cells regarding cell killing
Enhancement of MOR202 ADCC activity by LEN (in words) ([7]; AMO-1 cells, Clarke et al. all 6 experiments, Chou et al. 6 out of 6): synergistically enhanced MOR202 ADCC activity
Normalized specific killing, theoretical combination set as 1, AVERAGE (Table 3c) ([7]; PBMCs and AMO-1 cells treated with LEN, MOR202 0.42 μg/ml, LEN 5 μM, average of 3 experiments): 0.2
% dead cells (raw data, Table 4a) ([7]; only PBMCs (effector cells) treated with LEN before MOR202, LEN 10 μM, MOR202 and MOR03207 15 μg/ml, Exp. 1-3): 17.93 % dead cells and 15.33 % dead cells and 12.98 % dead cells
Normalized specific killing, theoretical combination set as 1, AVERAGE (Table 4c) ([7]; only effector cells treated with LEN, MOR202 0.42 μg/ml, LEN 5 μM, average of 3 experiments): 0.1
Normalized specific killing, fractional product combination set as 1 (Table 7b), Exp. 1 [8]: 0.67
Normalized specific killing, fractional product combination set as 1 (Table 8b), Exp. 1 [8]: −0.10
Number of mice alive at study termination (day 98) ([9]; LEN 100 mg/kg (Table 14) p.o., MOR202 1 mg/kg i.v.): 0/7
Day of death (post-inoculation) Mean ([9]; LEN 100 mg/kg (Table 14) p.o., MOR202 1 mg/kg i.v. twice weekly, study 98 days): 21.4 days
% ILS (based on median death day) ([9]; LEN 100 mg/kg (Table 14) p.o., MOR202 1 mg/kg i.v., vs vehicle control): 10%
Day of death (post-inoculation) Median ([9]; LEN 100 mg/kg (Table 14; Table 13: 50 mg/kg) p.o. once daily, MOR202 1 mg/kg i.v. twice weekly, study 98 days): 22 days
Absolute number of ABC (CD38 expression) LEN (extrapolated) ([10]; 100 μM lenalidomide): 69,000 ABC
Absolute number of ABC (CD38 expression) INCREASE ([10]; 100 μM lenalidomide vs basal): 39,000 ABC
Fold increase (CD38 expression) ([10]; 100 μM lenalidomide vs basal): 2.3 fold
Inhibition of cell proliferation by lenalidomide alone (in words) [11]: significant effect on the proliferation of NCI-H929 cells
Inhibition of cell proliferation by lenalidomide alone (in words) ([11]; listed as Lenalidomide): signficantly inhibited cell proliferation
